# Results from US11332485B2, “Penicillin-binding protein inhibitors” (priority 2017, dated 2022).
# Like-named read-outs stand apart in the source and are kept apart here.
# Key:
# S. aureus ATCC 29213 = test: Broth microdilution MIC assay; type: cell-based; conditions: Staphylococcus aureus, ATCC29213; broth microdilution, 16-20 hours at 37° C.; read-out: S. aureus 29213 MIC
# In short: (§1)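 Two-fold serial dilutions tested per CLSI in cation-supplemented Mueller-Hinton broth against S. aureus ATCC 29213 and hyper-permeable E. coli 901C; inoculum 5×10^5 CFU/mL from 3-5 h log-phase culture. Incubated 16-20 h at 37° C; MIC read visually as lowest concentration with no growth.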
# [1] = tested on: hyper-permeable E. coli 901C; test: Broth microdilution MIC assay; type: cell-based; conditions: Escherichia coli, read-out: E. coli 901C MIC
# In short: as §1
# [2] = target: T1, PBP1b from Escherichia coli (Escherichia coli, UniProt P02919); test: Radioligand competition binding assay with 14C-labeled boronic acid probe (Example 96); conditions: 14C-labeled probe 96 at 20 μM, PBP 0.1 μM; read-out: E. coli K12 PBP1b EC50
# T1 construct: made in house
# T1 sequence (P02919 whole entry): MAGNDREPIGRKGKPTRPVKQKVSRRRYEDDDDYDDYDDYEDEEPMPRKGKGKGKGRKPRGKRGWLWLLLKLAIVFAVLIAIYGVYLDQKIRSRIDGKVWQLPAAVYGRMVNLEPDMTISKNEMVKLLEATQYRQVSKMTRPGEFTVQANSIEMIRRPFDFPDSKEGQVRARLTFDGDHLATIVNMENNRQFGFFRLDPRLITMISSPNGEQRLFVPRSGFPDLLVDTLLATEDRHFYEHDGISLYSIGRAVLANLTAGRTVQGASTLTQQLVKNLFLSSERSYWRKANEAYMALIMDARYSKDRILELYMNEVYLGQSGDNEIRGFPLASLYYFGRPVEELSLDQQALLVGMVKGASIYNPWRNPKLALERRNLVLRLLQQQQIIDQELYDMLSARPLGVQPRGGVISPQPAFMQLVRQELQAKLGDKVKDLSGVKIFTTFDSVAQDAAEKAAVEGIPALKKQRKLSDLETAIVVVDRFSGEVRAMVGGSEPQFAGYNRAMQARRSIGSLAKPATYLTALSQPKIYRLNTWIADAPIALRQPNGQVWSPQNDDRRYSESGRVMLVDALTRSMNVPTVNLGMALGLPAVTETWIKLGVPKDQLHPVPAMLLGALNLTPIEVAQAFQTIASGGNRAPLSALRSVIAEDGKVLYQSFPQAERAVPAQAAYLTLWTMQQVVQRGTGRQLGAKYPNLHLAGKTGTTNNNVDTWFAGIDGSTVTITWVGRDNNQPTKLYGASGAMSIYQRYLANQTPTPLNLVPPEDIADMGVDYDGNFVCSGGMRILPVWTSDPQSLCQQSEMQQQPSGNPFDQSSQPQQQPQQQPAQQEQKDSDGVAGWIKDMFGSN
# Description: (§2) To determine the ability of boronic acid-based test PBP inhibitors to bind Penicillin Binding Proteins (PBPs), a radio-labelled boronic acid PBP inhibitor (Example 96) was used in competition binding assays to determine boronic acid PBP inhibitor binding to PBP1a or PBP1b from Escherichia coli. PBP1a and PBP1b were purified as described previously (Bertsche, U.; et al., J. Biol. Chem. 2005, 280 (45), 38096-38101; Born, P.; et al., J Biol. Chem. 2006. 281 (37), 26985-26993). To establish assay conditions for competition binding, an enzyme titration/saturation binding experiment was performed. Saturation binding was performed in a buffer comprised of 20 mM Tris (pH 7.5), 500 mM NaCl and 0.1% (v/v) TritonX-100, with PBP1a/PBP1b at a final concentration of 0.1 μM and 96 at final concentrations ranging from 0-100 μM. Mixtures were incubated for 60 minutes, then applied to Zeba Spin Desalting columns or plates (ThermoFisher Scientific) and centrifuged at 1000-1500×g for 2 minutes. The flow through, containing PBP bound with 96, was recovered and 100 μL mixed with 5 mL of UltimaGold liquid scintillation cocktail (Perkin Elmer), and the radioactivity counted using a Beckman Coulter LS 6500 Multipurpose scintillation counter. PBP binding of 96 approached saturation at 20 μM of ^14C-labeled probe. The competition binding assay was validated using the beta-lactam ampicillin, with 96 at a final concentration of 20 μM, PBP1a/PBP1b at a final concentration of 0.1 μM. PBP1a/PBP1b was incubated with ampicillin in a 96-well microplate for 60 minutes, then 96 was added and the mixtures incubated for an additional 60 minutes. The mixtures were then applied to Zeba Spin desalting plates and centrifuged at 1000×g for 2 minutes. The flow through was recovered and 100 μl mixed with 5 ml of UltimaGold liquid scintillation cocktail and the radioactivity counted. Ampicillin inhibited binding of 96 with an EC50 (the concentration of inhibitor required to reduce binding of 96 by 50%) of less than 0.5 μM. Binding assays with boronic acid PBP inhibitors were performed in an identical fashion. The potency of boronic acid PBP inhibitors was reported as the EC50 value.
# (§3) Representative results are shown in Table 5, where A represents a potency of >100 μM, B represents a potency between 10 μM and 100 μM inclusive, and C represents a potency of <10 μM. NT=Not Tested.
# [3] = tested on: E. coli DH5α/pLBII-CTX-M15; test: Broth microdilution MIC assay, engineered strain producing CTX-M15; type: cell-based, Escherichia coli; conditions: Escherichia coli, read-out: E. coli DH5α/pLBII-CTX-M15 Microbiological Activity (MIC)
# In short: (§4)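 CLSI broth microdilution in cation-supplemented Mueller-Hinton broth, 2-fold compound dilutions, 5×10^5 CFU/mL inoculum, 16-20 h at 37° C, MIC read visually as lowest concentration without growth. E. coli DH5α carries CTX-M15 on pLBII under Lac promoter, or empty pLBII as control.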
# E. coli DH5α/pLBII = test: Broth microdilution MIC assay, empty vector control strain; type: cell-based; conditions: Escherichia coli, read-out: E. coli DH5α/pLBII Microbiological Activity (MIC)
# In short: as §4
# [4] = target: T2, PBP3 from Escherichia coli (Escherichia coli, UniProt P0AD68); test: Fluorescence polarization competition binding assay with Bocillin-FL
# T2 construct: made in house
# T2 sequence (P0AD68 1-577): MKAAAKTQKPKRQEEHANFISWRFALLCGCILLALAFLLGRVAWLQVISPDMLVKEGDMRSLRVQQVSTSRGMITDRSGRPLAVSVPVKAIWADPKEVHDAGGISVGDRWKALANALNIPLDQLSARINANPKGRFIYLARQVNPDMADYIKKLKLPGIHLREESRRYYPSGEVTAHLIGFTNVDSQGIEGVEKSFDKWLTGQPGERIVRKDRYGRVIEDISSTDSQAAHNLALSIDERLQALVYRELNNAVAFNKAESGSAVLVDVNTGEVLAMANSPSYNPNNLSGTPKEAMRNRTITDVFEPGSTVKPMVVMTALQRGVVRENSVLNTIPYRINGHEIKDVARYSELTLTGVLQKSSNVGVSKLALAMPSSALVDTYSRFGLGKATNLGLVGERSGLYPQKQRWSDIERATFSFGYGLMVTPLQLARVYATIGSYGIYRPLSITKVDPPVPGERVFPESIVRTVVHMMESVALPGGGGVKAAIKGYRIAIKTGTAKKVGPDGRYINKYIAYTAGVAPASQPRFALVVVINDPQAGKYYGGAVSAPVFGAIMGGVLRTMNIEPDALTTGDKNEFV
# In short: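 Fluorescence polarization competition assay with Bocillin-FL at 0.1 μM final and purified E. coli PBP3 at 1.5 μM final in 50 mM Hepes pH 8.0, 300 mM NaCl, 5% glycerol. Inhibitor preincubated with PBP3 for 30 min before probe addition; FP then read continuously for 60 min. Potency reported in binned categories.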
# [5] = target: T3, PBP1a from Escherichia coli (Escherichia coli, UniProt P02918); test: Radioligand competition binding assay with 14C-labeled boronic acid probe (Example 96); conditions: PBP 0.1 μM
# T3 construct: made in house
# T3 sequence (P02918 whole entry): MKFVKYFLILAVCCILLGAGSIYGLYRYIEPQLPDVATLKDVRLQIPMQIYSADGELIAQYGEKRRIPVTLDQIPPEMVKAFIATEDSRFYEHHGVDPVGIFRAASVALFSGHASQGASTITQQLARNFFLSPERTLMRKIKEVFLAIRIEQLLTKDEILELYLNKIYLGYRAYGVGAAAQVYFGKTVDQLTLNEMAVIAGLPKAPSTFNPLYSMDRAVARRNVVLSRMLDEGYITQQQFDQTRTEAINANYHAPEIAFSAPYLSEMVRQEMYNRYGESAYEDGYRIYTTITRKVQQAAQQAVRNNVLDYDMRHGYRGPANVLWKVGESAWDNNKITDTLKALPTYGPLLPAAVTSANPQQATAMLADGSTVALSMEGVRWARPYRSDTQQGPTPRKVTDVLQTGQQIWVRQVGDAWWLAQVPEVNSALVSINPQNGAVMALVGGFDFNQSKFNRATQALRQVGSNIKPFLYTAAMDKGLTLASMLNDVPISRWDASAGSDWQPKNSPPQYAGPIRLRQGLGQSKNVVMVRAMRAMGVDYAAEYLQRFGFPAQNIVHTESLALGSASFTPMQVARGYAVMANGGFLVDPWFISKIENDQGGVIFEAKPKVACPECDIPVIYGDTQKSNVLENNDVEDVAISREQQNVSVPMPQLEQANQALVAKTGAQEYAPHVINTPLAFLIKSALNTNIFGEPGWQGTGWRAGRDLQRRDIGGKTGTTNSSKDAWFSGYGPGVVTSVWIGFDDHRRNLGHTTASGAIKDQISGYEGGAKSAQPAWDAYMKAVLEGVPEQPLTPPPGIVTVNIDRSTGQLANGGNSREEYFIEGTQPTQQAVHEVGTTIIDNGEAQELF
# Description: as §2, §3
# [6] = 14C-labeled probe 96 at 20 μM, read-out: E. coli K12 PBP1a EC50
Structure (SMILES),MIC (S. aureus ATCC 29213) [µg/mL],MIC [1] [µg/mL],EC50 [2] [µM],MIC [3] [µg/mL],MIC (E. coli DH5α/pLBII) [µg/mL],EC50 [4] [µM],"EC50 [5, 6] [µM]","EC50 ([5]; E. coli K12 PBP1a EC50, 14C-labeled probe 96 at 20 μM) [µM]"
"Nc1nc(C(NC(=O)N2CCN(CC3CC3)C(=O)C2=O)C(=O)N[C@H]2Cc3cccc(C(=O)O)c3OB2O)cs1 (stereo partly drawn) [Example 67, (3R)-3-(2-(2-aminothiazol-4-yl)-2-(4-(cyclopropylmethyl)-2,3-dioxopiperazine-1-carboxamido)acetamido)-2-hydroxy-3,4-dihydro-2H-benzo[e][1,2]oxaborinine-8-carboxylic acid]",64 to 128,< 64,< 10,32 to 64,32 to 64,30 to 500,–,–
"CCN1CCN(C(=O)N[C@H](C(=O)N[C@H]2Cc3cccc(C(=O)O)c3OB2O)[C@H](O)CO)C(=O)C1=O [Example 73, (R)-3-((2S,3S)-2-(4-ethyl-2,3-dioxopiperazine-1-carboxamido)-3,4-dihydroxybutanamido)-2-hydroxy-3,4-dihydro-2H-benzo[e][1,2]oxaborinine-8-carboxylic acid]",> 128,> 128,> 100,> 512,> 512,> 500,–,–
"CN1CCN(C(=O)NC(C(=O)N[C@H]2Cc3cccc(C(=O)O)c3OB2O)c2csc(N)n2)C(=O)C1=O (stereo partly drawn) [Example 43, (3R)-3-(2-(2-aminothiazol-4-yl)-2-(4-methyl-2,3-dioxopiperazine-1-carboxamido)acetamido)-2-hydroxy-3,4-dihydro-2H-benzo[e][1,2]oxaborinine-8-carboxylic acid]",64 to 128,< 64,–,32 to 64,32 to 64,30 to 500,> 100,–
"CCN1CCN(C(=O)N[C@@H](C(=O)N[C@H]2Cc3cccc(C(=O)O)c3OB2O)C(C)C)C(=O)C1=O [Example 78, (R)-3-((R)-2-(4-ethyl-2,3-dioxopiperazine-1-carboxamido)-3-methylbutanamido)-2-hydroxy-3,4-dihydro-2H-benzo[e][1,2]oxaborinine-8-carboxylic acid]",64 to 128,< 64,< 10,32 to 64,32 to 64,< 30,–,–
"CCN1CCN(C(=O)NC(C(=O)N[C@H]2Cc3cc(O)cc(C(=O)O)c3OB2O)c2csc(N)n2)C(=O)C1=O (stereo partly drawn) [Example 39, (3R)-3-(2-(2-aminothiazol-4-yl)-2-(4-ethyl-2,3-dioxopiperazine-1-carboxamido)acetamido)-2,6-dihydroxy-3,4-dihydro-2H-benzo[e][1,2]oxaborinine-8-carboxylic acid]",> 128,< 64,–,32 to 64,32 to 64,30 to 500,–,10 to 100
"CCC(O)[C@@H](NC(=O)N1CCN(CC)C(=O)C1=O)C(=O)N[C@H]1Cc2cccc(C(=O)O)c2OB1O (single isomer, unassigned) [Example 82]",> 128,< 64,–,32 to 64,32 to 64,30 to 500,< 10,–
"C[C@@H](O)[C@@H](NC(=O)N1CCN(CCF)C(=O)C1=O)C(=O)N[C@H]1Cc2cccc(C(=O)O)c2OB1O [Example 91, (R)-3-((2R,3R)-2-(4-(2-fluoroethyl)-2,3-dioxopiperazine-1-carboxamido)-3-hydroxybutanamido)-2-hydroxy-3,4-dihydro-2H-benzo[e][1,2]oxaborinine-8-carboxylic acid]",> 128,< 64,< 10,8 to 16,–,> 500,–,–
"Nc1nc(C(NS(N)(=O)=O)C(=O)N[C@H]2Cc3cccc(C(=O)O)c3OB2O)cs1 (stereo partly drawn) [Example 26, (3R)-3-(2-(2-aminothiazol-4-yl)-2-(sulfamoylamino)acetamido)-2-hydroxy-3,4-dihydro-2H-benzo[e][1,2]oxaborinine-8-carboxylic acid]",> 128,< 64,10 to 100,32 to 64,32 to 64,30 to 500,< 10,–
"CCN1CCN(C(=O)NC(Cc2ccccc2)C(=O)N[C@H]2Cc3cccc(C(=O)O)c3OB2O)C(=O)C1=O (stereo partly drawn) [Example 79, (3R)-3-(2-(4-ethyl-2,3-dioxopiperazine-1-carboxamido)-3-phenylpropanamido)-2-hydroxy-3,4-dihydro-2H-benzo[e][1,2]oxaborinine-8-carboxylic acid]",< 64,< 64,< 10,–,–,30 to 500,–,–
"CCN1CCN(C(=O)N[C@H](C)C(=O)N[C@H]2Cc3cccc(C(=O)O)c3OB2O)C(=O)C1=O [Example 34, (R)-3-((R)-2-(4-Ethyl-2,3-dioxopiperazine-1-carboxamido)propanamido)-2-hydroxy-3,4-dihydro-2H-benzo[e][1,2]oxaborinine-8-carboxylic acid]",> 128,< 64,< 10,128 to 256,128 to 256,30 to 500,10 to 100,–
